This data set is described as follows: Metabolite analysis in pig plasma. It counts as in vivo, pigs. How it is done: To control the quality of the K[^18F]F-Kryptofix®222/K2CO3-complex, reactions using ethylene glycol ditosylate were performed randomly. Radio-TLC of [^18F]10a and [^18F]10b was performed on Polygram® ALOX N/UV254 plates (Macherey-Nagel GmbH & Co. KG) with dichloromethane/methanol (9:1, v/v). The spots of the references were visualized using UV light at 254 nm.
Arterial blood was sampled using a peristaltic pump during the first 20 min of the scan followed by manual sampling at 25, 30, 40, 50, 60, 90, 120, 150, 180, 210, and 240 min after injection. Plasma was obtained by centrifugation (13,000 rpm, 2 min at 21 °C) and total radioactivity concentration was measured using a gamma-counter (1470 Wizard; PerkinElmer, Shelton, CT, USA) cross-calibrated to the PET scanner. […]
The plasma input function was corrected for the presence of radioactive metabolites by determination of the parent fraction as described previously. Plasma samples were de-proteinized by addition of ice-cold acetonitrile (500 μL MeCN/100 μL plasma) followed by centrifugation (13,000 rpm, 10 min). Aliquots of the original plasma sample and of the supernatant obtained after centrifugation were counted for radioactivity, and the supernatant was analyzed by radio-HPLC following the chromatographic methods described in quality control. The parent fraction as a function of time was fitted iteratively with the Levenberg-Marquardt algorithm, including decay correction, to calculate metabolite corrected input function.

As for `O=S1(=O)c2ccc([18F])cc2-c2ccc(N3CCN4CCC3CC4)cc21` [[^18F]10a], the “Parent fraction of total radioactivity in plasma” value is 88% (2 min p.i.), 24% (60 min p.i.) and 19% (120 min p.i.).

Source of the values: paper PMC6332508, “A Promising PET Tracer for Imaging of α7 Nicotinic Acetylcholine Receptors in the Brain: Design, Synthesis, and in Vivo Evaluation of a Dibenzothiophene-Based Radioligand” (Molecules, 2015).
